Columns and labels:
Type in all cases: cell-based, human
[1] = system: iPSC-derived cardiomyocytes; assay: Western analysis of protein expression in iPSC-derived cardiomyocytes
Method: (§1) To prepare for differentiation, iPSCs were plated at a density between 20,000 to 80,000 cells (depending on the cell line) per well of a 12-well plate at four days prior to onset of differentiation. Cells were differentiated according to the protocol previously described by Lian et al. with some modifications (FIG. 1A) (1). Basal media was changed from StemFlex to RPMI/B27 on day 0 of differentiation. The GSK3 inhibitor, CHIR99021 (6 μM), was added for 48 hours from day 0 to day 2 of differentiation when cells were approximately 70-80% confluent. The Wnt antagonist IWP4 (5 μM) was added from days 2 to 4 of differentiation. Insulin (10 μg/ml) was added to the media starting on day 7 of differentiation, and media was changed every 2-3 days. In general, higher purity (TNNT2+) cardiomyocytes were observed when beating initiated prior to day 10 of differentiation, therefore only batches with onset of beating between days 7-10 of differentiation were included in this study. Beating cardiomyocytes were treated with Torin1 (200 nM, unless otherwise noted) or vehicle (0.02% dimethylsulfoxide (DMSO)) beginning at ˜2 days after onset of beating for 7 days (media changed with fresh Torin1 or DMSO every 2-3 days), unless otherwise noted. After Torin1 treatment, media was switched back to RPMI/B27/insulin and maintained with media change every 2-3 days until endpoint assay. In a few assays, fatty acids were added in the form of chemically defined lipids (Gibco) diluted 1:1000 simultaneous with Torin1 treatment. In some other assays, fetal bovine serum (10% FBS) was added to cells after completion of Torin treatment for 2-4 days.
Cells were lysed with lysis buffer (1% Triton X, 0.35% Na-deoxycholate, 1 mM EDTA, 1% protease inhibitor cocktail (Sigma), 1% phosphatase inhibitor cocktail 2 (Sigma), 1% phosphatase inhibitor cocktail 3 (Sigma), 1 mM phenylmethylsulfonyl fluoride (PMSF)) and total protein was measured with the Pierce BCA Protein Assay Kit. Samples with equal total protein quantities (prepared in Laemmli Sample Buffer (Bio-Rad)) were loaded into a Mini-Protean TGX Precast Gel (Bio-Rad) and electrophoresed for 1 hour at 100 V before transfer to a PVDF membrane using the Trans-Blot Turbo Transfer System (Bio-Rad). The Precision Plus Protein Dual Color Standards molecular weight ladder was used to estimate molecular weight of detected bands (Bio-Rad). Membranes were blocked with 5% milk or bovine serum albumin then incubated with the primary antibody (Table 2) overnight at 4 degrees C. followed by incubation with the horseradish peroxidase-conjugated secondary antibody (Table 2) for 1 hour at room temperature. The Amersham ECL Western Blotting Detection kit was used to detect the protein signal by chemiluminescence, and band densities were quantified using ImageJ software (NIH).

[2] = system: TNNT2+ iPSC-derived cardiomyocytes; assay: Cell cycle analysis by flow cytometry (Hoechst 33342 / pyronin Y) of TNNT2+ cardiomyocytes
Method: as §1
Cells were dissociated and 5×10^5 to 1×10^6 cells were used per condition. For cell cycle analysis, 5×10^5 cells per condition were fixed in 70% cold ethanol for at least 2 hours to overnight at −20 degrees C. Cells were stained first with AlexaFluor 647-TNNT2 in Permeabilization Buffer (Thermo) then with Hoechst 33342 (2 μg/ml) and pyronin Y (4 μg/ml) for 20 minutes to distinguish between cells in G0, G1, and S-G2-M phases. For other stains, cells were fixed in eBioscience Intracellular Fixation buffer for 30 minutes followed washing twice in eBioscience Permeabilization Buffer and stained with the appropriate primary antibody (Table 2) in eBioscience FACS Staining buffer for 30-60 minutes. If a secondary antibody was used, cells were incubated with the appropriate secondary antibody (Table 2) for 30-60 minutes. The geometric mean fluorescence intensity (MFI) was quantified for TNNT2 and Kir2.1 antibodies. Data were acquired via a BD LSRII instrument and analyzed using FlowJo software.

[3] = system: iPSC-derived cardiomyocytes; assay: Calcium transients (Fluo-4 AM) analysis with Vala Kinetic Image Cytometer; conditions: isoproterenol 1 μM, FIG. 14
Method: To perform calcium transients analysis, 50 ul of 10 ug/ml Hoeschst 33258 and 5 μM Fluo-4 AM was added to each well of a 96 well plate and incubated for 10 minutes at 37 degrees. Media was replaced with RPMI without phenol red supplemented with 1:100 Oxyfluor and 10 uM sodium lactate. Isoproterenol (1 μM) was added to the media for isoproterenol experiments. Pacing protocol was 5 seconds delay without pacing followed by 5 seconds pacing at 1 Hz and 5 seconds imaging without pacing. Imaging was performed using the Vala Kinetic Image Cytometer at 30 fps with 33.30 ms exposure at 14.25 intensity. Stimulation pulse was 5 ms with 15V voltage. Data was collected by CyteSeer analysis program.

[4] = system: iPSC-derived cardiomyocytes; assay: Spontaneous beating rate of cardiomyocytes; conditions: FIG. 29
Method: (§2) The BJRiPS cell line was used to generate preliminary data. BJRiPS cells were differentiated into cardiomyocytes according to previously published protocols (6). After the onset of beating (around day 10), cardiomyocytes were treated with vehicle (DMSO) or different concentrations of rapamycin, Torin1, or Torin2 for different time periods. Beating rate was counted manually. Some cells were harvested after 5-7 days of treatment for flow cytometry analysis. Other cells were harvested after 7 days of treatment for qPCR.

[5] = system: BJRiPS-derived cardiomyocytes; assay: Example 3 preliminary qPCR of maturation genes in BJRiPS-derived cardiomyocytes; conditions: preliminary data, after differentiation
Method: as §2

[6] = pifithrin-α 10 μM with Torin1 200 nM, 7 days, FIG. 5B

COc1ccc(C2=N[C@@H](c3ccc(Cl)cc3)[C@@H](c3ccc(Cl)cc3)N2C(=O)N2CCNC(=O)C2)c(OC(C)C)c1 [nutlin-3a]
p53 and TNNI3 protein expression ([1]; nutlin-3a 10 μM 24 hours, independently of Torin1, FIG. 6C): increased p53 and TNNI3 protein expression | percentage of quiescent (G0) TNNT2+ cardiomyocytes versus control ([2]; nutlin-3a 10 μM 24 hours, Torin1 200 nM 7 days, or both, BJRiPS-CMs, FIG. 6B): increased the percentage of quiescent (G0) TNNT2+ cardiomyocytes | percentage of TNNT2+ cardiomyocytes in G1 phase versus control ([2]; nutlin-3a 10 μM 24 hours, Torin1 200 nM 7 days, or both, FIG. 6B): decreased the percentage of TNNT2+ cardiomyocytes in G1 phase

CC(C)NCC(O)c1ccc(O)c(O)c1 (stereo not shown) [isoproterenol]
calcium peak rise time, peak decay time and FWHM time with isoproterenol stimulation [3]: further decreases

Nc1ccc(-c2ccc3ncc4ccc(=O)n(-c5cccc(C(F)(F)F)c5)c4c3c2)cn1 [Torin2]
beating rate of cardiomyocytes ([4]; Torin1 10, 50, 200 nM, Torin2 200 nM, from day 11 for 4-5 days): decreased the beating rate | beating rates at 1 week ([4]; dose-dependent, BJRiPS-CMs): significantly decreased beating rates | RNA expression of markers of maturation including TNNI3 and KCNJ2 [5]: increased RNA expression

Cc1ccc(C(=O)Cn2c3c(sc2=N)CCCC3)cc1 [pifithrin-α]
Torin1-induced increase in p53 and TNNI3 protein ([1]; pifithrin-α 10 μM with Torin1 200 nM, 7 days, FIGS. 5C-5D): inhibited the Torin1-induced increase in both p53 and TNNI3 | percentage of cardiomyocytes in the cell cycle (G1, S/G2/M) versus Torin1 alone [2, 6]: increased the percentage of cardiomyocytes in the cell cycle | percentage of quiescent (G0) cardiomyocytes versus Torin1 alone [2, 6]: decreased the percentage of quiescent (G0) cardiomyocytes

Reference: US11850266B2, “Cardiomyocytes and compositions and methods for producing the same” (President and Fellows of Harvard College, priority 2019, dated 2023)
